Marks after values point to notes of the source that are not given here.
Tested on: mouse neuroblastoma (N2a) cells
Assay: Quantitative real-time RT-PCR: mRNA expression of mitochondrial dynamics, biogenesis and synaptic genes
Format: cell-based
Conditions: N2a cells
Protocol: Tissue culture: The N2a cells were grown for 3 days in a serum-free medium (1:1 mixture of DMEM and OptiMEM, plus penicillin and streptomycin [Invitrogen, Carlsbad, Calif., USA]) until the cells developed neuronal processes.
Quantitative real-time RT-PCR: Using the reagent TriZol (Invitrogen), total RNA was isolated from cell pellets from the 5 N2a cell groups (FIG. 1). Using primer express software (Applied Biosystems, Carlsbad, Calif., USA), the inventors designed the oligonucleotide primers for the housekeeping genes 3-actin, GAPDH, mitochondrial structural genes, fission genes (Drp1, Fis1), fusion genes (MFN1, MFN2, Opa1), biogenesis genes (PGC1c, Nrf1, Nrf2, TFAM), and synaptic genes (synaptophysin and PSD95) (see Table 1 for primer sequences and amplicon sizes). Using SYBR-Green chemistry-based quantitative real-time RT-PCR, mRNA expressions of the above-mentioned genes were measured, as described by Manczak and Reddy.
The mRNA transcript level was normalized against β-actin and the GAPDH at each dilution. The standard curve was the normalized mRNA transcript level, plotted against the log-value of the input cDNA concentration at each dilution. To compare β-actin, GAPDH, and relative quantification was performed according to the (CT) method (Applied Biosystems). […] The ΔCT-value was obtained by subtracting the average β-actin CT value from the average CT-value of the synaptic mitochondrial ETC genes and the mitochondrial structural genes. The ΔCT of untreated cells was used as the calibrator. The fold change was calculated according to the formula 2^-(Δ ΔCT), where ΔΔCT is the difference between ΔCT and the ΔCT calibrator value. To determine the statistical significance of mRNA expression, the CT value differences between the untreated cells and other experimental groups of cells were used in relation to β-actin normalization. Statistical significance was calculated, using one-way ANOVA.

[1] = Aβ42 6 hrs then Mdivi1 24 hrs (Aβ42+Mdivi1), vs Aβ42 treated cells
[2] = Aβ42 6 hrs then Mdivi1 24 hrs (Aβ42+Mdivi1), vs untreated N2a cells
[3] = Mdivi1 24 hrs or Aβ42 20 μM 6 hrs alone, vs untreated N2a cells
[4] = Mdivi1 24 hrs then Aβ42 6 hrs (Mdivi1+Aβ42), vs Aβ42 treated cells
[5] = Mdivi1 24 hrs then Aβ42 6 hrs (Mdivi1+Aβ42), vs untreated N2a cells

SMILES: COc1cc(-n2c(S)nc3ccccc3c2=O)c(Cl)cc1Cl [Mdivi1, 3-(2,4-Dichloro-5-methoxyphenyl)-2,3-dihydro-2-thioxo-4(1H)-quinazolinone]
- Drp1 mRNA expression level, lower by fold [1]: 1.5 fold
- Drp1 mRNA fold change [1]: −1.5* fold
- Fis1 mRNA expression level, lower by fold [1]: 1.7 fold
- Fis1 mRNA fold change [1]: −1.7* fold
- Mfn1 mRNA fold change [1]: 1.6 fold
- Mfn2 mRNA fold change [1]: 1.6 fold
- Nrf1 mRNA fold change [1]: 2.0 fold
- OPA1 mRNA fold change [1]: 1.3 fold
- PGC1α mRNA fold change [1]: 8.1 fold
- Synaptophysin mRNA fold change [1]: 1.5 fold
- CypD mRNA level [2]: unchanged
- PGC1α mRNA fold change [2]: 1.4 fold
- PSD95 mRNA fold change [2]: 4.8 fold
- Synaptophysin mRNA fold change [2]: 1.2 fold
- TFAM mRNA fold change [2]: 1.2 fold
- Drp1 mRNA fold change [3]: −1.5* fold
- Drp1 mRNA level, fold decrease [3]: 1.5 fold
- Fis1 mRNA fold change [3]: −1.3 fold
- Fis1 mRNA level, fold decrease [3]: 1.3 fold
- Mfn1 mRNA fold change [3]: 1.3 fold
- Mfn2 mRNA fold change [3]: 1.2 fold
- Nrf1 mRNA fold change [3]: 2.2 fold
- Nrf2 mRNA fold change [3]: 1.6 fold
- OPA1 mRNA fold change [3]: 1.2 fold
- PGC1α mRNA fold change [3]: 2.2 fold
- PSD95 mRNA fold change [3]: 5.1 fold
- Synaptophysin mRNA fold change [3]: 1.3 fold
- TFAM mRNA fold change [3]: 1.5 fold
- Drp1 mRNA expression level, lower by fold [4]: 1.5 fold
- Drp1 mRNA fold change [4]: −1.5* fold
- Fis1 mRNA expression level, lower by fold [4]: 1.6 fold
- Fis1 mRNA fold change [4]: −1.6* fold
- Mfn2 mRNA fold change [4]: 2.2 fold
- Nrf1 mRNA fold change [4]: 2.7 fold
- Nrf2 mRNA fold change [4]: 2.7 fold
- OPA1 mRNA fold change [4]: 2.3 fold
- PGC1α mRNA fold change [4]: 6.5 fold
- PSD95 mRNA fold change [4]: 3.8 fold
- Synaptophysin mRNA fold change [4]: 2.2 fold
- TFAM mRNA fold change [4]: 3.2 fold
- Drp1 mRNA fold change [5]: −1.1 fold
- Fis1 mRNA fold change [5]: −1.2 fold
- Mfn1 mRNA fold change [5]: 2.1 fold
- Mfn2 mRNA fold change [5]: 1.7 fold
- Nrf1 mRNA fold change [5]: 1.3 fold
- Nrf2 mRNA fold change [5]: 1.3 fold
- OPA1 mRNA fold change [5]: 1.9 fold
- PGC1α mRNA fold change [5]: 1.1 fold
- PSD95 mRNA fold change [5]: 1.5 fold
- Synaptophysin mRNA fold change [5]: 1.7 fold
- TFAM mRNA fold change [5]: 1.3 fold
